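In this assay, cells in 96-well plates receive the compound at five concentrations for 48 hours. Endpoints are linearly interpolated between the surrounding concentrations. GI50: concentration for 50% inhibition of growth.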 Activity calls are given as the source filed them. Cut-off read from the data, not from the text of the source: active = GI50 up to about 1.1 µM and inactive = higher.
Columns and labels:
Test in all cases: inhibition of tumour cell growth, NCI panel, 48 h
786-0 = tested on: 786-0
A549 = tested on: A549
HCT-116 = tested on: HCT-116
HL-60 = tested on: HL-60
HOP-62 = tested on: HOP-62
HT-29 = tested on: HT-29
K562 = tested on: K562
KM-20L2 = tested on: KM-20L2
KM12 = tested on: KM12
NCI-H460 = tested on: NCI-H460
NCI-H522 = tested on: NCI-H522
OVCAR-3 = tested on: OVCAR-3
RPMI-8226 = tested on: RPMI-8226
RXF 393 = tested on: RXF 393
SK-MEL-2 = tested on: SK-MEL-2
SK-OV-3 = tested on: SK-OV-3
SW-620 = tested on: SW-620
TK-10 = tested on: TK-10

Measured: GI50

COC(=O)C1CCC2(CC1)NC(=O)NC2=O (stereo not given)
inactive: 786-0 > 100 µM | A549 > 100 µM | HCT-116 > 100 µM | HL-60 > 100 µM | HOP-62 > 100 µM | HT-29 > 100 µM | K562 > 100 µM | KM-20L2 > 100 µM | KM12 > 100 µM | NCI-H460 > 100 µM | NCI-H522 > 100 µM | OVCAR-3 > 100 µM | RPMI-8226 > 100 µM | RXF 393 > 100 µM | SK-MEL-2 > 100 µM | SK-OV-3 > 100 µM | SW-620 > 100 µM | TK-10 > 100 µM

COc1cccc(NC(=O)C(=O)C(C(=O)c2ccccc2F)C2OC(=O)c3ccccc32)c1 (stereo not given)
inactive: A549 45.3 µM | HCT-116 20 µM | HL-60 20.7 µM | HOP-62 42.2 µM | HT-29 34.3 µM | K562 30.9 µM | KM-20L2 33.3 µM | KM12 45.8 µM | NCI-H460 35.1 µM | NCI-H522 16.1 µM | RPMI-8226 21.6 µM | RXF 393 28.1 µM | SK-MEL-2 22.5 µM | SK-OV-3 35.2 µM | SW-620 42.6 µM | TK-10 > 100 µM

CC(C)(C)N/N=C(\Cc1occc(=O)c1O)C(=O)Nc1ccc([N+](=O)[O-])cc1[N+](=O)[O-]
inactive: 786-0 > 100 µM | A549 > 100 µM | HCT-116 > 100 µM | HL-60 > 100 µM | HOP-62 > 100 µM | HT-29 > 100 µM | K562 > 100 µM | KM-20L2 > 100 µM | KM12 > 100 µM | NCI-H460 > 100 µM | NCI-H522 > 100 µM | RPMI-8226 > 100 µM | RXF 393 > 100 µM | SK-MEL-2 > 100 µM | SK-OV-3 > 100 µM | SW-620 > 100 µM | TK-10 > 100 µM

O=C1CCC(c2nc3cc(Cl)ccc3o2)C(=O)N1 (stereo not given)
inactive: 786-0 > 100 µM | A549 > 100 µM | HCT-116 > 100 µM | HL-60 > 100 µM | HOP-62 > 100 µM | HT-29 > 100 µM | K562 > 100 µM | KM-20L2 > 100 µM | KM12 > 100 µM | NCI-H460 > 100 µM | NCI-H522 > 100 µM | OVCAR-3 > 100 µM | RXF 393 > 100 µM | SK-MEL-2 > 100 µM | SK-OV-3 > 100 µM | SW-620 > 100 µM | TK-10 > 100 µM

CC1(C)C2C=CC1C(=O)CC2 (stereo not given)
inactive: 786-0 > 100 µM | A549 > 100 µM | HCT-116 > 100 µM | HL-60 > 100 µM | HOP-62 > 100 µM | HT-29 > 100 µM | K562 > 100 µM | KM-20L2 > 100 µM | KM12 > 100 µM | NCI-H460 > 100 µM | NCI-H522 > 100 µM | OVCAR-3 > 100 µM | RPMI-8226 > 100 µM | RXF 393 > 100 µM | SK-MEL-2 > 100 µM | SW-620 > 100 µM | TK-10 > 100 µM

COC(=O)/C(=C1\OC(=O)C(c2ccc(Cl)cc2)=C1O)c1ccc(Cl)cc1
inactive: 786-0 36.1 µM | A549 24.8 µM | HCT-116 19.8 µM | HL-60 7.6 µM | HOP-62 17.7 µM | HT-29 30 µM | K562 27 µM | KM-20L2 28.6 µM | KM12 23.8 µM | NCI-H460 26.1 µM | NCI-H522 17.2 µM | OVCAR-3 27.8 µM | RPMI-8226 19.6 µM | RXF 393 21.5 µM | SK-OV-3 28.8 µM | SW-620 35.7 µM | TK-10 31 µM

O=C(O/N=C1\CCCC\C1=C/c1ccccc1)c1ccc([N+](=O)[O-])cc1
inactive: 786-0 98.6 µM | A549 88.5 µM | HCT-116 > 100 µM | HL-60 76.9 µM | HOP-62 > 100 µM | HT-29 > 100 µM | K562 74.1 µM | KM-20L2 > 100 µM | NCI-H460 > 100 µM | NCI-H522 69.8 µM | OVCAR-3 42.1 µM | RPMI-8226 > 100 µM | RXF 393 > 100 µM | SK-MEL-2 > 100 µM | SK-OV-3 > 100 µM | SW-620 > 100 µM

CC(=O)OCC1OC(n2cnc3c(I)nc(I)nc32)C(OC(C)=O)C1OC(C)=O (stereo not given)
inactive: 786-0 14.3 µM | A549 17.7 µM | HCT-116 4.91 µM | HL-60 2.47 µM | HOP-62 18.8 µM | HT-29 6.4 µM | K562 3.69 µM | KM-20L2 17.6 µM | KM12 4.48 µM | NCI-H460 17.7 µM | NCI-H522 1.91 µM | OVCAR-3 7.55 µM | RPMI-8226 10.9 µM | RXF 393 17.3 µM | SK-MEL-2 17.1 µM | SW-620 13.8 µM | TK-10 19.3 µM

From ChEMBL document CHEMBL1201862, “PubChem BioAssay data set” (2004)
